Experiments:
[1] = target: T1, σ1-receptor (Cavia porcellus, UniProt Q60492); test: Sigma-1 receptor binding assay, [3H](+)-pentazocine, brain membranes; details: guinea pig brain membranes
T1 construct: guinea pig brains are homogenized; from tissue; host or cells: guinea pig brain membranes
Protocol: Brain membrane preparation and binding assays for the σ1-receptor are performed as described (DeHaven-Hudkins et al., 1992) with some modifications. In brief, guinea pig brains are homogenized in 10 vols. (w/v) of Tris-HCl 50 mM 0.32 M sucrose, pH 7.4, with a Kinematica Polytron PT 3000 at 15000 r.p.m. for 30 s. The homogenate is centrifuged at 1000 g for 10 min at 4° C. and the supernatants collected and centrifuged again at 48000 g for 15 min at 4° C. The pellet is resuspended in 10 volumes of Tris-HCl buffer (50 mM, pH 7.4), incubated at 37° C. for 30 min, and centrifuged at 48000 g for 20 min at 4° C. Following this, the pellet is resuspended in fresh Tris-HCl buffer (50 mM, pH 7.4) and stored on ice until use.
Each assay tube contains 10 μL of [^3H](+)-pentazocine (final concentration of 0.5 nM), 900 μL of the tissue suspension to a final assay volume of 1 mL and a final tissue concentration of approximately 30 mg tissue net weight/mL. Non-specific binding is defined by addition of a final concentration of 1 μM haloperidol. All tubes are incubated at 37° C. for 150 min before termination of the reaction by rapid filtration over Schleicher & Schuell GF 3362 glass fibre filters [previously soaked in a solution of 0.5% polyethylenimine for at least 1 h]. Filters are then washed four times with 4 mL of cold Tris-HCl buffer (50 mM, pH 7.4). Following addition of scintillation cocktail, the samples are allowed to equilibrate overnight. The amount of bound radioactivity is determined by liquid scintillation spectrometry using a Wallac Winspectral 1414 liquid scintillation counter. Protein concentrations are determined by the method of Lowry et al. (1951).

[2] = test system: capsaicin-induced allodynia; test: Von Frey filaments in a model of capsaicin-induced allodynia; format: in vivo; details: mice, percent analgesia compared to control, mechanical stimulus after capsaicin injection into paw
Protocol: This model is described in detail in the experimental part of WO 2006/010587 A1, examples 1 and 2, the description being included here by reference. Capsaicin is thereby injected into experimental animals to produce acute pain followed by allodynia.
Briefly after habituation mice were first treated with the test-compound (or not in controls). Then capsaicin (1% DMSO) is injected into their paw resulting in developing pain in the effected paw. The effected paw is then treated with a mechanical stimulus and the latency time before the paw is withdrawn is measured.
The results obtained for examples 5, 6 and 8 are shown in table (II) as percent analgesia compared to control achieved at […] 16 mg/kg i.p.

T1 sequence (Q60492 whole entry): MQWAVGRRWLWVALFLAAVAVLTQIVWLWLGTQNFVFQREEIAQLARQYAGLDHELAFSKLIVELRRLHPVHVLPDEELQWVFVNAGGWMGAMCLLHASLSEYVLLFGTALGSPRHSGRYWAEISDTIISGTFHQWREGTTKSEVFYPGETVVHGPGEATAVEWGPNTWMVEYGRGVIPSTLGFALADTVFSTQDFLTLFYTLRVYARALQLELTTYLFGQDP

SMILES | melting point | Ki [1] | Analgesia (16 mg/kg), i.p. % [2]
CC(C)(C)n1ccc(OCCN2CCCC2)n1.O=C(O)C(=O)O [Example 4, 1-tert-butyl-3-[2-(pyrrolidin-1-yl)ethoxy]-1H-pyrazole oxalate] | 82 to 88 °C |  | 
CCN(CC)CCOc1ccn(C2CCCCC2)n1.O=C(O)C(=O)O [Example 7, 2-(1-cyclohexyl-1H-pyrazol-3-yloxy)-N,N-diethylethanamine oxalate] | 85 to 90 °C |  | 
O=C(O)C(=O)O.c1cn(C2CCCCC2)nc1OCCN1CCCC1 [Example 8, 1-Cyclohexyl-3-(2-(pyrrolidin-1-yl)ethoxy)-1H-pyrazole oxalate] | 117 to 119 °C | 2.5 nM | 65%
CCN(CC)CCOc1ccn(C(C)(C)C)n1.O=C(O)C(=O)O | 96 to 98 °C |  | 
CC(C)(C)n1ccc(OCCN2CCCCC2)n1.O=C(O)C(=O)O [Example 2, 1-[2-(1-tert-butyl-1H-pyrazol-3-yloxy)ethyl]piperidine oxalate] | 123 to 126 °C |  | 
O=C(O)C(=O)O.c1cn(C2CCCCC2)nc1OCCN1CCOCC1 [Example 5, 4-(2-(1-cyclohexyl-1H-pyrazol-3-yloxy)ethyl)morpholine oxalate] | 135 to 140 °C | 4.1 ± 0.1 nM | 20%
O=C(O)C(=O)O.c1cn(C2CCCCC2)nc1OCCN1CCCCC1 [Example 6, 1-(2-(1-cyclohexyl-1H-pyrazol-3-yloxy)ethyl)piperidine oxalate] | 105 to 110 °C | 1 ± 0.3 nM | 70%
O=C(O)C(=O)O.c1ccc(C2CCN(CCOc3ccn(C4CCCCC4)n3)CC2)cc1 [Example 11, 1-(2-(1-Cyclohexyl-1H-pyrazol-3-yloxy)ethyl)-4-phenylpiperidine oxalate] | 122 to 128 °C | 8.6 nM | 

Reference: US8088812B2, “Sigma receptor inhibitors” (Laboratorios Del Dr. Esteve, S.A., priority 2006, dated 2012)
